{
  "source": "patent US20260201062A1",
  "about": "“LIGAND-DRUG CONJUGATE OF EXATECAN ANALOGUE, PREPARATION METHOD THEREFOR AND APPLICATION THEREOF” (JIANGSU HENGRUI MEDICINE CO., LTD., priority 2018, published 2026)",
  "key": {"[1]": {"system": "SK-BR-3 tumor cells (human breast cancer cells)", "test": "In vitro inhibition of compound of formula (D) on tumor cell proliferation (CTG), SK-BR-3", "assay_type": "cell-based", "details": "read-out: IC50 of in vitro inhibition on the proliferation of SK-BR-3 cells", "experimental": "(§1) The purpose of this test is to test the in vitro inhibition effect of the drug compound of formula (D) of the present invention on the proliferation of U87MG cells (Chinese Academy of Sciences cell bank, Catalog #TCHu138) and SK-BR-3 tumor cells (human breast cancer cells, ATCC, article number HTB-30). The cells were treated with different concentrations of the compound in vitro. After 6 days of cultivation, the cell proliferation was determined by CTG reagent (CellTiter-Glo® Luminescent Cell Viability Assay, Promega, article number: G7573), and the in vitro activity of the compound was evaluated according to the IC50 value.\nThe test method for in vitro proliferation inhibition test of the present compounds on tumor cells is described below by taking in vitro proliferation inhibition test method onU87MG cells as an example. This method is also applicable to, but not limited to, the in vitro proliferation inhibition tests on other tumor cells. • 1. Cell cultivation: U87MG cells and SK-BR-3 cells were cultured in EMEM medium containing 10% FBS (GE, article number SH30024.01) and McCoy's 5A medium containing 10% FBS (Gibco, article number 16600-108), respectively. • 2. Cell preparation: U87MG cells and SK-BR-3 cells in logarithmic growth phase were washed with PBS (phosphate buffer, Shanghai Basal Media Technologies Co., Ltd.) once, and then added with 2-3 ml of trypsin (0.25% Trypsin-EDTA (1×), Gibico, Life Technologies) to digest for 2-3 min. 10-15 ml of cell culture medium was added after the cells were completely digested. The digested cells were eluted, and centrifuged at 1000 rpm for 5 min. The supernatant was discarded, and 10-20 ml of cell culture medium was added to resuspend the cells to obtain a single-cell suspension. • 3. Cell plating: the U87MG and SK-BR-3 single-cell suspensions were mixed well, and the cell densities were adjusted to 2.75×10^3 cells/ml and 8.25×10^3 cells/ml with the cell culture medium respectively. The density-adjusted cell suspension was mixed well, and added to a 96-well cell culture plate at 180 μl/well. 200 μl of culture medium was added to the peripheral wells of the 96-well plate. The plate was incubated in an incubator for 24 hours (37° C., 5% CO2). • 4. Compound formulation: the compound was dissolved with DMSO (dimethylsulfoxide, Shanghai Titan Technology Co., Ltd.) to obtain a stock solution with an initial concentration of 10 mM.\nThe initial concentration of the small molecule compound was 500 nM, and the formulating method is as follows.\n30 μl of different test samples were respectively added into the first column of the 96-well U-shaped bottom formulating plate with a sample concentration of 100 µM. 20 µl of DMSO was added to each well from the second column to the 11th column. […]"}, "U87MG cells": {"system": "U87MG cells", "test": "In vitro inhibition of compound of formula (D) on tumor cell proliferation (CTG), U87MG", "assay_type": "cell-based", "details": "Homo sapiens, U-87 MG, 144 h, read-out: IC50 of in vitro inhibition on the proliferation of U87 cells", "experimental": "as §1\nThe test method for in vitro proliferation inhibition test of the present compounds on tumor cells is described below by taking in vitro proliferation inhibition test method onU87MG cells as an example. This method is also applicable to, but not limited to, the in vitro proliferation inhibition tests on other tumor cells. • 1. Cell cultivation: U87MG cells and SK-BR-3 cells were cultured in EMEM medium containing 10% FBS (GE, article number SH30024.01) and McCoy's 5A medium containing 10% FBS (Gibco, article number 16600-108), respectively. • 2. […]"}, "[2]": {"system": "trastuzumab (Herceptin) resistant human breast cancer cell strain JIMT-1 transplanted tumor", "test": "Efficacy evaluation in JIMT-1 tumor-bearing mice", "assay_type": "in vivo, Nunu nude mice", "details": "10 mg/kg, intraperitoneal injection 2 times, Day 34", "source_text": "Formulation method: the drugs were all diluted and formulated with PBS. • 3. Test animals • Nunu nude mice, purchased from Beijing Vital River Laboratory Animal Technology Co., Ltd.\nJIMT-1 cells (Nanjing Cobioer Biosciences Co., Ltd.) (5×10^6 cells/mouse, having 50% matrigel) were inoculated subcutaneously in the right rib of mouse. After the tumor grew for 8 days and reached 203.09±11.94 mm^3, the animals were randomly grouped into 6 groups with 8 animals per group (d1).\nThe drugs were administered by intraperitoneal injection for a total of 2 times. The tumor volume and body weight were measured twice a week, and the data were recorded.\nExcel 2003 statistical software was used for data statistics: mean value was calculated as avg; SD value was calculated as STDEV; SEM value was calculated as STDEV/SQRT; P value between different groups was calculated as TTEST.\n[formula] [formula] [formula] • wherein V0 and VT represent the tumor volume at the beginning of the test and at the end of the test, respectively. CRTV and TRTV represent the relative tumor volume of the blank control group (Vehicle, PBS) and the test group at the end of the test, respectively."}, "[3]": {"details": "144 h, SK-BR-3, 6 days of cultivation, CTG reagent"}},
  "note": "pIC50: −log10 of the molar value. Like-named read-outs stand apart in the source and are kept apart here.",
  "data": [
    {"molecule": "CC[C@@]1(O)C(=O)OCc2c1cc1n(c2=O)Cc2c-1nc1cc(F)c(C)c3c1c2[C@@H](NC(=O)C1(O)CC1)CC3", "note": "[Compound 1, N-((1S,9S)-9-Ethyl-5-fluoro-9-hydroxy-4-methyl-10,13-dioxo-2,3,9,10,13,15-hexahydro-1H,12H-benzo[de]pyrano[3′,4′:6,7]indolizino[1,2-b]quinolin-1-yl)-1-hydroxycyclopropane-1-carboxamide]", "values": [
      {"measurement": "pIC50", "setting": "[1]; SK-BR-3, 144 h", "value": 9.92},
      {"measurement": "pIC50", "setting": "U87MG cells", "value": 9.64}
    ]},
    {"molecule": "CC[C@@]1(O)C(=O)OCc2c1cc1n(c2=O)Cc2c-1nc1cc(F)c(C)c3c1c2[C@@H](NC(=O)C1(O)CCCC1)CC3", "note": "[Compound 4, N-((1S,9S)-9-Ethyl-5-fluoro-9-hydroxy-4-methyl-10,13-dioxo-2,3,9,10,13,15-hexahydro-1H,12H-benzo[de]pyrano[3′,4′:6,7]indolizino[1,2-b]quinolin-1-yl)-1-hydroxycyclopentane-1-carboxamide]", "values": [
      {"measurement": "pIC50", "setting": "[1]; SK-BR-3, 144 h", "value": 8.72}
    ]},
    {"molecule": "CC[C@@]1(O)C(=O)OCc2c1cc1n(c2=O)Cc2c-1nc1cc(F)c(C)c3c1c2[C@@H](NC(=O)C1(CO)CC1)CC3", "note": "[Compound 5, N-((1S,9S)-9-Ethyl-5-fluoro-9-hydroxy-4-methyl-10,13-dioxo-2,3,9,10,13,15-hexahydro-1H,12H-benzo[de]pyrano[3′,4′:6,7]indolizino[1,2-b]quinolin-1-yl)-1-(hydroxymethyl) cyclopropane-1-carboxamide]", "values": [
      {"measurement": "pIC50", "setting": "U87MG cells", "value": 8.32}
    ]},
    {"molecule": "CC[C@@]1(O)C(=O)OCc2c1cc1n(c2=O)Cc2c-1nc1cc(F)c(C)c3c1c2[C@@H](NC(=O)C1(CO)CCC1)CC3", "note": "[Compound 6, N-((1S,9S)-9-Ethyl-5-fluoro-9-hydroxy-4-methyl-10,13-dioxo-2,3,9,10,13,15-hexahydro-1H,12H-benzo[de]pyrano[3′,4′:6,7]indolizino[1,2-b]quinolin-1-yl)-1-(hydroxymethyl) cyclobutane-1-carboxamide]", "values": [
      {"measurement": "pIC50", "setting": "[1]; [3]", "value": 9.00}
    ]},
    {"molecule": "CC[C@@]1(O)C(=O)OCc2c1cc1n(c2=O)Cc2c-1nc1cc(F)c(C)c3c1c2[C@@H](NC(=O)C1(O)CCC1)CC3", "note": "[Compound 7, N-((1S,9S)-9-Ethyl-5-fluoro-9-hydroxy-4-methyl-10,13-dioxo-2,3,9,10,13,15-hexahydro-1H,12H-benzo[de]pyrano[3′,4′:6,7]indolizino[1,2-b]quinolin-1-yl)-1-hydroxycyclobutane-1-carboxamide]", "values": [
      {"measurement": "pIC50", "setting": "[1]; [3]", "value": 9.00}
    ]},
    {"molecule": "T-DM1", "values": [
      {"measurement": "tumor inhibition rate", "setting": "[2]", "value": "no inhibition effect on tumor"}
    ]}
  ]
}
